Data: US20120178766A1, “FUROPYRIMIDINEDIONE DERIVATIVES AS TRPAI MODULATORS” (priority 2009, published 2012)

Key:
human TRPA1 = molecular target: T1, human TRPA1 (Homo sapiens, UniProt O75762); assay: 45Calcium uptake assay: inhibition of AITC induced cellular uptake of radioactive calcium, human TRPA1 expressing CHO cells; format: cell-based; details: AITC 30 μM; for inhibition at 1 µM: 1.0 μM compound, read-out: human TRPA1 Percentage inhibition at 1.0 μM; for inhibition at 10 µM: 10.0 μM compound, read-out: human TRPA1 Percentage inhibition at 10.0 μM; for IC50: class symbols
T1 construct: expressed in transfected cells; host or cells: CHO cells (G-418 selection)
How it was run: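 CHO cells expressing TRPA1 were preincubated 10 min with compound (0.5% DMSO final), then given AITC (30 μM human, 10 μM rat) plus 5 μCi/ml 45Ca2+ for 3 min. Lysate radioactivity measured by scintillation; IC50 obtained by nonlinear regression of % maximal response without antagonist.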

rat TRPA1 = molecular target: T2, rat TRPA1 (Rattus norvegicus, UniProt Q6RI86); assay: 45Calcium uptake assay: inhibition of AITC induced cellular uptake of radioactive calcium, rat TRPA1 expressing CHO cells; format: cell-based; details: AITC 10 μM; for inhibition at 10 µM: 10.0 μM compound, read-out: rat TRPA1 Percentage inhibition at 10.0 μM; for inhibition at 1 µM: read-out: rat TRPA1 Percentage inhibition; for IC50: class symbols
T2 construct: expressed in transfected cells; host or cells: CHO cells (Zeocin selection)
How it was run: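 CHO cells expressing rat or human TRPA1 were pre-treated with compound for 10 min, then given AITC (30 μM human, 10 μM rat) plus 5 μCi/ml 45Ca2+ for 3 min; final DMSO 0.5%. Lysate radioactivity was counted by scintillation. IC50 came from nonlinear regression of concentration-response curves as % of maximal response.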

T2 sequence (Q6RI86 whole entry): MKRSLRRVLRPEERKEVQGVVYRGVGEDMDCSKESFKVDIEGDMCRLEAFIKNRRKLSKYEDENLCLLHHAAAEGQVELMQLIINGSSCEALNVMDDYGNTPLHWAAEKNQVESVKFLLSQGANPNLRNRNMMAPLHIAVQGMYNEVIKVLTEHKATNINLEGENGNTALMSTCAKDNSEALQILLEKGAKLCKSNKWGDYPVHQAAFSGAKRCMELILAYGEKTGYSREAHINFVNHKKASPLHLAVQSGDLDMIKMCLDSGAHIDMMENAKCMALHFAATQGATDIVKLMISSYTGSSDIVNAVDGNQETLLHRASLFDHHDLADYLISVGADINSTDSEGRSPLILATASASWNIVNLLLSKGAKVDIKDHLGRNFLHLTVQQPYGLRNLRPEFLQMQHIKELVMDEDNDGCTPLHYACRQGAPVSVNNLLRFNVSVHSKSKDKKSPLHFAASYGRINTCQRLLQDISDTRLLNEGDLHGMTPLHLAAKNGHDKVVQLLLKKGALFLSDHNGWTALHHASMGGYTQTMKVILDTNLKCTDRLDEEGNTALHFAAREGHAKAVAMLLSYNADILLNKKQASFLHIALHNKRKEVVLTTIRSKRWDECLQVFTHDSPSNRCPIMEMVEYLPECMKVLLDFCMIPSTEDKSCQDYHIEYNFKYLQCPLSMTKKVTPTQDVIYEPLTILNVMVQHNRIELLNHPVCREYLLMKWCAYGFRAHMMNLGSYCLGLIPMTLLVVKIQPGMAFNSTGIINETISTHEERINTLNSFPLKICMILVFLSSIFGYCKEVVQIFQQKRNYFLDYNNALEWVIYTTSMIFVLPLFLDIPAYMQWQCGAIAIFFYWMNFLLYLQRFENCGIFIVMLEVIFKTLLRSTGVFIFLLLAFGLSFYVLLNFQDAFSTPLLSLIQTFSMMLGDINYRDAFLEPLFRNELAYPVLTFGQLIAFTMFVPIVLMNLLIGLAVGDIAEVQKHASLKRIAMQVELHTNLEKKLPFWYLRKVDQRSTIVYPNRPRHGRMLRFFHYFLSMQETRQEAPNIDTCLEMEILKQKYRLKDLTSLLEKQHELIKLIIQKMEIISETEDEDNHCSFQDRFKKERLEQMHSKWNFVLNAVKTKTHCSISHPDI
T1 sequence (O75762 whole entry): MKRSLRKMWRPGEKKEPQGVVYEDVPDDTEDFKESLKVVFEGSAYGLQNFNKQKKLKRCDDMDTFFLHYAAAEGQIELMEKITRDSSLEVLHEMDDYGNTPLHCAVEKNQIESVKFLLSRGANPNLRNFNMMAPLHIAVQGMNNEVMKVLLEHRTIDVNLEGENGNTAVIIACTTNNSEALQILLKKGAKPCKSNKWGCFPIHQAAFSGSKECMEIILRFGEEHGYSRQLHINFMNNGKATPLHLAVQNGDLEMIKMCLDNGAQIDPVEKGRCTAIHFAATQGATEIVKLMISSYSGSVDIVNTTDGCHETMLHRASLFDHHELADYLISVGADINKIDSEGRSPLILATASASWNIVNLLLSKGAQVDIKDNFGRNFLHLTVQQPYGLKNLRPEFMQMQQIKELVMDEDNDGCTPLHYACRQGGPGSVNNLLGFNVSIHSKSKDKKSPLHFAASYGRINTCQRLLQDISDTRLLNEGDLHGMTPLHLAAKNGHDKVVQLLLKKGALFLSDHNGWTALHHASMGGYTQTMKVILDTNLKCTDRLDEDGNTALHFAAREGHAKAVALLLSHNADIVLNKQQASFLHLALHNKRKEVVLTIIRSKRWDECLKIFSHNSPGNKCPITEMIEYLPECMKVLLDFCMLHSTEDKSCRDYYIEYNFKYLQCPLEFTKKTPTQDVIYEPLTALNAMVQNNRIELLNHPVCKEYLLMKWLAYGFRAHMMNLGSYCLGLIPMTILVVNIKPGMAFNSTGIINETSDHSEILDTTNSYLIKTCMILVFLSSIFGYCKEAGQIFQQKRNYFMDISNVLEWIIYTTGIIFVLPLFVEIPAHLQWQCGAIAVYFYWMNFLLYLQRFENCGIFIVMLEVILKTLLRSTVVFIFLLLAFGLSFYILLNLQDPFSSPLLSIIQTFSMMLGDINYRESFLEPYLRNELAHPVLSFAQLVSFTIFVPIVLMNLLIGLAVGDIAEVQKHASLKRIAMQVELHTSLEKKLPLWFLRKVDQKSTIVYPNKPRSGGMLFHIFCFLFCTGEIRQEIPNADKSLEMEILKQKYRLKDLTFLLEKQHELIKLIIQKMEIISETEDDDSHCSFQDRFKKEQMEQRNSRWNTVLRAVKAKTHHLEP

Compound | inhibition at 1 µM (human TRPA1) [%] | inhibition at 10 µM (human TRPA1) [%] | IC50 (human TRPA1) [µM] | inhibition at 10 µM (rat TRPA1) [%] | inhibition at 1 µM (rat TRPA1) [%] | IC50 (rat TRPA1) [µM]
CC(C)COc1c(F)cc(-c2csc(NC(=O)Cc3coc4c3c(=O)n(C)c(=O)n4C)n2)cc1F [Example 40, N1-{4-(3,5-Difluoro-4-isobutoxyphenyl)-1,3-thiazol-2-yl}2-(1,3-dimethyl-2,4-dioxo-1,2,3,4-tetrahydrofuro[2,3-d]pyrimidin-5-yl)acetamide] | 93.2 | 99.2 | < 0.05 | 99.6 | 99.2 | < 0.05
CC(C)COc1c(Cl)cc(-c2csc(NC(=O)Cc3coc4c3c(=O)n(C)c(=O)n4C)n2)cc1Cl [Example 41, N1-[4-(3,5-Dichloro-4-isobutoxyphenyl)-1,3-thiazol-2-yl]-2-(1,3-dimethyl-2,4-dioxo-1,2,3,4-tetrahydrofuro[2,3-d]pyrimidin-5-yl)acetamide] | 99.6 | 100 | < 0.05 | 100 | 99.5 | < 0.05
Cn1c(=O)c2c(CC(=O)Nc3nc(-c4cc(F)c(OCC(C)(C)C)c(F)c4)cs3)coc2n(C)c1=O [Example 42, N1-{4-[3,5-Difluoro-4-(2,2-dimethylpropoxy)phenyl]-1,3-thiazol-2-yl}2-(1,3-dimethyl-2,4-dioxo-1,2,3,4-tetrahydrofuro[2,3-d]pyrimidin-5-yl)acetamide] | 96.1 | 99.9 | < 0.05 | – | – | < 0.05
Cn1c(=O)c2c(CC(=O)Nc3nc(-c4cc(Cl)c(OCC(C)(C)C)c(Cl)c4)cs3)coc2n(C)c1=O [Example 43, N1-{4-[3,5-Dichloro-4-(2,2-dimethylpropoxy)phenyl]-1,3-thiazol-2-yl}-2-(1,3-dimethyl-2,4-dioxo-1,2,3,4-tetrahydrofuro[2,3-d]pyrimidin-5-yl)acetamide] | 99.2 | 99.7 | < 0.05 | 100 | 89.2 | 0.05 to 0.1
Cn1c(=O)c2c(CC(=O)Nc3nc(-c4cc(F)c(OCC(C)(C)C)c(Cl)c4)cs3)coc2n(C)c1=O [Example 44, N1-{4-[3-Chloro-5-fluoro-4-(2,2-dimethylpropoxy)phenyl]-1,3-thiazol-2-yl}-2-(1,3-dimethyl-2,4-dioxo-1,2,3,4-tetrahydrofuro[2,3-d]pyrimidin-5-yl)acetamide] | 100 | 99.5 | < 0.05 | 99.2 | 71 | < 0.05
Cn1c(=O)c2c(CC(=O)Nc3nc(-c4cc(F)c(OCC(F)(F)F)c(F)c4)cs3)coc2n(C)c1=O [Example 46, N1-{4-[3,5-Difluoro-4-(2,2,2-trifluoroethoxy)phenyl]-1,3-thiazol-2-yl}-2-(1,3-dimethyl-2,4-dioxo-1,2,3,4-tetrahydrofuro[2,3-d]pyrimidin-5-yl)acetamide] | 99.8 | 100 | < 0.05 | 99.5 | 96.1 | 0.05 to 0.1
Cn1c(=O)c2c(CC(=O)Nc3nc(-c4cc(Cl)c(OCC(F)(F)F)c(Cl)c4)cs3)coc2n(C)c1=O [Example 47, N1-{4-[3,5-Dichloro-4-(2,2,2-trifluoroethoxy)phenyl]-1,3-thiazol-2-yl}2-(1,3-dimethyl-2,4-dioxo-1,2,3,4-tetrahydrofuro[2,3-d]pyrimidin-5-yl)acetamide] | 99.2 | 99.8 | < 0.05 | 100 | 86 | < 0.05
Cn1c(=O)c2c(CC(=O)Nc3nc(-c4cc(F)c(OCC(F)(F)F)c(Cl)c4)cs3)coc2n(C)c1=O [Example 48, N1-{4-[3-Chloro-5-fluoro-4-(2,2,2-trifluoroethoxy)phenyl]-1,3-thiazol-2-yl}-2-(1,3-dimethyl-2,4-dioxo-1,2,3,4-tetrahydrofuro[2,3-d]pyrimidin-5-yl)acetamide] | 96.6 | 95.1 | < 0.05 | 99.2 | 99.6 | < 0.05
Cn1c(=O)c2c(CC(=O)Nc3nc(-c4cc(F)c(OCCC(F)(F)F)c(F)c4)cs3)coc2n(C)c1=O [Example 49, N1-{4-[3,5-Difluoro-4-(3,3,3-trifluoropropoxy)phenyl]-1,3-thiazol-2-yl}-2-(1,3-dimethyl-2,4-dioxo-1,2,3,4-tetrahydrofuro[2,3-d]pyrimidin-5-yl)acetamide] | 95.6 | 98.3 | < 0.05 | 97.7 | 86.6 | < 0.05
Cc1oc2c(c1CC(=O)Nc1nc(-c3ccc(C(F)(F)F)cc3)cs1)c(=O)n(C)c(=O)n2C [Example 50, N1-{4-[4-(Trifluoromethyl)phenyl]-1,3-thiazol-2-yl}-2-(1,3,6-trimethyl-2,4-dioxo-1,2,3,4-tetrahydrofuro[2,3-d]pyrimidin-5-yl)acetamide] | 99.6 | 98.3 | – | 100 | 99.9 | –
Cc1oc2c(c1CC(=O)Nc1nc(-c3cccc(C(F)(F)F)c3)cs1)c(=O)n(C)c(=O)n2C [Example 51, N1-{4-[3-(Trifluoromethyl)phenyl]-1,3-thiazol-2-yl}-2-(1,3,6-trimethyl-2,4-dioxo-1,2,3,4-tetrahydrofuro[2,3-d]pyrimidin-5-yl)acetamide] | 99.8 | 100 | – | 100 | 100 | –
Cc1oc2c(c1CC(=O)Nc1nc(-c3cccc(OC(F)(F)F)c3)cs1)c(=O)n(C)c(=O)n2C [Example 52, N1-{4-[3-(Trifluoromethoxy)phenyl]-1,3-thiazol-2-yl}-2-(1,3,6-trimethyl-2,4-dioxo-1,2,3,4-tetrahydrofuro[2,3-d]pyrimidin-5-yl)acetamide] | 99.1 | 99.2 | – | 100 | 100 | –
Cc1oc2c(c1CC(=O)Nc1nc(-c3ccc(OC(F)(F)F)cc3)cs1)c(=O)n(C)c(=O)n2C [Example 53, N1-{4-[4-(Trifluoromethoxy)phenyl]-1,3-thiazol-2-yl}-2-(1,3,6-trimethyl-2,4-dioxo-1,2,3,4-tetrahydrofuro[2,3-d]pyrimidin-5-yl)acetamide] | 99.7 | 97.3 | – | 100 | 100 | –
Cc1oc2c(c1CC(=O)Nc1nc(-c3ccc(Cl)c(Cl)c3)cs1)c(=O)n(C)c(=O)n2C [Example 54, N1-[4-(3,4-Dichlorophenyl)-1,3-thiazol-2-yl]-2-(1,3,6-trimethyl-2,4-dioxo-1,2,3,4-tetrahydrofuro[2,3-d]pyrimidin-5-yl)acetamide] | – | – | < 0.05 | – | – | 0.05 to 0.1
Cc1oc2c(c1CC(=O)Nc1nc(-c3cccc(Cl)c3Cl)cs1)c(=O)n(C)c(=O)n2C [Example 55, N1-[4-(2,3-Dichlorophenyl)-1,3-thiazol-2-yl]-2-(1,3,6-trimethyl-2,4-dioxo-1,2,3,4-tetrahydrofuro[2,3-d]pyrimidin-5-yl)acetamide] | 95.8 | 99 | – | 100 | 97.7 | –
Cc1oc2c(c1CC(=O)Nc1nc(-c3ccc(F)c(C(F)(F)F)c3)cs1)c(=O)n(C)c(=O)n2C [Example 58, N1-{4-[4-Fluoro-3-(trifluoromethyl)phenyl]-1,3-thiazol-2-yl}-2-(1,3,6-trimethyl-2,4-dioxo-1,2,3,4-tetrahydrofuro[2,3-d]pyrimidin-5-yl)acetamide] | – | – | < 0.05 | – | – | < 0.05
Cc1oc2c(c1CC(=O)Nc1nc(-c3ccc(C(F)(F)F)c(F)c3)cs1)c(=O)n(C)c(=O)n2C [Example 59, N1-{4-[3-Fluoro-4-(trifluoromethyl)phenyl]-1,3-thiazol-2-yl}-2-(1,3,6-trimethyl-2,4-dioxo-1,2,3,4-tetrahydrofuro[2,3-d]pyrimidin-5-yl)acetamide] | – | – | < 0.05 | – | – | 0.05 to 0.1
Cc1oc2c(c1CC(=O)Nc1nc(-c3ccc(C(F)(F)F)cc3F)cs1)c(=O)n(C)c(=O)n2C [Example 60, N1-{-4-(2-Fluoro-4-(trifluoromethyl)phenyl]-1,3-thiazol-2-yl}-2-(1,3,6-trimethyl-2,4-dioxo-1,2,3,4-tetrahydrofuro[2,3-d]pyrimidin-5-yl)acetamide] | – | – | < 0.05 | 99.7 | 99.3 | 0.05 to 0.1
Cc1oc2c(c1CC(=O)Nc1nc(-c3cccc(C(F)(F)F)c3F)cs1)c(=O)n(C)c(=O)n2C [Example 61, N1-{4-[2-Fluoro-3-(trifluoromethyl)phenyl]-1,3-thiazol-2-yl}-2-(1,3,6-trimethyl-2,4-dioxo-1,2,3,4-tetrahydrofuro[2,3-d]pyrimidin-5-yl)acetamide] | – | – | < 0.05 | – | – | < 0.05
Cc1oc2c(c1CC(=O)Nc1nc(-c3cc(F)cc(C(F)(F)F)c3)cs1)c(=O)n(C)c(=O)n2C [Example 62, N1-{4-[3-Fluoro-5-(trifluoromethyl)phenyl]-1,3-thiazol-2-yl}-2-(1,3,6-trimethyl-2,4-dioxo-1,2,3,4-tetrahydrofuro[2,3-d]pyrimidin-5-yl)acetamide] | – | – | < 0.05 | – | – | < 0.05
